The text below walks through data of publication PMC10609152, “Synthesis, Computational, and Anticancer In Vitro Investigations of Aminobenzylnaphthols Derived from 2-Naphtol, Benzaldehydes, and α-Aminoacids via the Betti Reaction” (Molecules, 2023).

Data set [1] has as its system BxPC-3 cells. Kind of data set: Annexin V-FITC/PI flow cytometry, BxPC-3. The data set is classed as cell-based. To be noted: Annexin V-FITC, BxPC-3, IC50 concentration, 72 h. On the procedure:
(§1) The Annexin V-FITC Apoptosis Detection Kit was utilized to assess the induction of apoptosis following 72 h incubation with the tested MMZ compounds. BxPC-3 and HT-29 cells were plated at a density of 4 × 10^5 cells in 6-well plates. After 24 h, the cells were exposed to IC50 concentrations of MMZ-45AA and […], determined in the MTT assay. The experimental setup included a vehicle control with a final solvent concentration of less than 0.5% v/v DMSO, and cells treated with 2 µM SN-38 (the active metabolite of irinotecan) as a positive control. The cells were then incubated for an additional 72 h at 37 °C with 5% CO2.
(§2) Following the exposure period, the cells were trypsinized, transferred to cytometric tubes, and allowed to incubate for 40 min. Subsequently, they were centrifuged at 1400 rpm for 10 min at 4 °C. The supernatant was then removed, and the cell pellet was diluted in 1 mL PBS. The remaining steps were carried out according to the instructions provided by the manufacturer of the Annexin V-FITC Apoptosis Detection Kit. The results reported in this study were obtained from three independent experiments
In general terms: A flow cytometer gives signals particle by particle.

The test system of data set [2] is BxPC-3 cells. Nature of the data set: AO/EB double staining, BxPC-3. It counts as cell-based. The conditions noted are these: BxPC-3, IC50 concentration, 72 h. Here is the method: (§3) BxPC-3 and HT-29 cells were plated at a density of 5 × 10^4 cells per well in 12-well plates. After 24 h, the cells were treated with MMZ-45AA and MMZ-140C at concentrations corresponding to their IC50 values obtained from the MTT assay. The cells were exposed to the compounds for 72 h. Following the incubation period, the cells were treated with a mixture of fluorochromes (100 µM AO/EB in a 1:1 ratio, v/v) for 5 min at 37 °C in the absence of light.
(§4) The staining technique allowed for the differentiation of viable, apoptotic, and necrotic cells based on their varying uptake of fluorescent DNA-binding dyes and the degree of chromatin condensation in the stained nuclei. A fluorescence microscope (Olympus BX60 F5, Olympus Optical Co., Ltd., Nagano, Japan) with an excitation wavelength of 360 nm was used to analyze the cells. The results were obtained from three independent experiments.

Data set [3] relates to HT-29 cells. Nature of the data set: AO/EB double staining, HT-29. The data set is classed as cell-based. The conditions noted are these: HT-29, IC50 concentration, 72 h. Here is the method:
as §3, §4

In data set [4] the test system is HT-29 cells. Nature of the data set: MTT assay, HT-29. The data set is classed as cell-based. The conditions noted are these: Homo sapiens. The source says:
(§5) The MTT assay, also known as the 3-(4,5-dimethylthiazol-2-yl)-2,5-diphenyltetrazolium bromide assay, is a colorimetric assay used in biological and biomedical research to determine cell viability and proliferation. The MTT assay works on the assumption that live cells with active metabolism convert MTT into formazan crystals. These crystals are insoluble; however, they can be dissolved in an organic solvent such as DMSO to produce a colorful solution. The color intensity is proportional to the number of viable cells present in the culture.
(§6) BxPC-3, HT-29, and WI-38 cells were seeded on 96-well plates at a density of approximately 8–10 × 10^3 cells per 100 µL medium/well. Cells were allowed to grow for 24 h in controlled conditions (37 °C; 5% CO2). […] The experimental design included nontreated controls and blanks (wells without cells). Following 24 or 72 h of culture with the investigated compounds, 20 μL of MTT tetrazolium salt (5 mg/mL in PBS) was added to each well, and the plates were incubated for 3 h in a humidified environment (37 °C; 5% CO2). The solutions were withdrawn after incubation, and 100 μL of DMSO was added to dissolve the formazan complexes. Afterward, a spectrophotometer (microplate reader Power Wave XS BioTek Instruments, Inc., Winooski, VT, USA) reading at 570 nm was conducted. The experiments were carried out in duplicates.
(§7) GraphPad Prism 7 software was used to calculate the concentration of an MMZ compound reflecting a 50% growth inhibition (IC50). IC50 is defined as a concentration of tested compound that leads to a reduction in cell pool viability by 50% compared to the negative control (accepted as 100%). % cell viability=Absorbance value of treated cells−Absorbance value of blank/(Absorbance value of untreated cells−Absorbance value of blank)×100%
(Tetrazolium dyes change colour on reduction, which living cells bring about.)

For data set [5], the system named is BxPC-3 cells. Kind of data set: MTT assay, BxPC-3. To be noted: Homo sapiens. It counts as cell-based.
From the text: as §5, §6, §7

Data set [6] relates to HT-29 cells. Kind of data set: Annexin V-FITC/PI flow cytometry, HT-29. The data set is classed as cell-based. To be noted: Annexin V-FITC, HT-29, IC50 concentration, 72 h. On the procedure:
as §1, §2

Data set [7] in a line: MTT cell viability, WI-38 normal fibroblasts. It counts as cell-based. The conditions noted are these: human, WI-38 normal fibroblast cells, read-out: % cell viability ± SD; for viability at 72 h: WI-38, 72 h. Here is the method: as §6, §7
For data set [8], the system named is A549. Also noted: method as in doi:10.31083/j.jmcm.2019.02.7181. To be noted: cited from earlier work.
In data set [9] the test system is SW1573. The arrangement: method as in doi:10.31083/j.jmcm.2019.02.7181. The conditions noted are these: cited from earlier work.
In data set [10] the test system is HeLa. The arrangement: method as in doi:10.31083/j.jmcm.2019.02.7181. To be noted: cited from earlier work.
Data set [11] relates to HBL100. The arrangement: method as in doi:10.31083/j.jmcm.2019.02.7181. To be noted: cited from earlier work.
Data set [12] relates to T47D. The arrangement: method as in doi:10.31083/j.jmcm.2019.02.7181. To be noted: cited from earlier work.
Where [13] appears, read: HT-29, 24-h MTT, independent experiment 1, read-out: IC50(1).
[14] abbreviates: HT-29, 24-h MTT, independent experiment 2, read-out: IC50(2).
Where [15] appears, read: HT-29, 24-h MTT, read-out: Mean IC50 ± SD.
[16] abbreviates: HT-29, 72-h MTT, independent experiment 1, read-out: IC50(1).
Setting [17] is: HT-29, 72-h MTT, independent experiment 2, read-out: IC50(2).
[18] abbreviates: HT-29, 72-h MTT, read-out: Mean IC50 ± SD.
Setting [19] is: BxPC-3, 24-h MTT, independent experiment 1, read-out: IC50(1).
[20] abbreviates: BxPC-3, 24-h MTT, independent experiment 2, read-out: IC50(2).
Setting [21] is: BxPC-3, 24-h MTT, read-out: Mean IC50 ± SD.
The mark [22] stands for this setting: BxPC-3, 72-h MTT, independent experiment 1, read-out: IC50(1).
[23] abbreviates: BxPC-3, 72-h MTT, independent experiment 2, read-out: IC50(2).
Where [24] appears, read: BxPC-3, 72-h MTT, read-out: Mean IC50 ± SD.

Where two headings read alike, the source gives them in different places.

For `COC(=O)[C@H](Cc1ccccc1)N[C@@H](c1ccccc1)c1c(O)ccc2ccccc12` (mixture of isomers) [MMZ-45AA, (S,S) and (R,R)-methyl ((2-hydroxynaphthalen-1-yl)(phenyl)methyl)-L-phenylalaninate], the “% of apoptotic cells” value worked out at 38.7 ± 5.43% in data set [1], 21.9 ± 3.4% in data set [2], 15.93 ± 3% in [3] and 24.23 ± 1.1% in data set [6]. For the same compound, the IC50 (usually the point on the concentration scale where inhibition reaches its midpoint) stood at 40.3 µM in [4] (setting [13]); 48.1 µM in [4] (setting [14]); 44.2 ± 5.49 µM in data set [4] (setting [15]); 12.2 µM in data set [4] (setting [16]); 11.9 µM in data set [4] (setting [17]); 12.1 ± 0.247 µM in data set [4] (setting [18]). In addition, the IC50 is 58.1 µM in data set [5] (setting [19]); 38 µM in [5] (setting [20]); 48 ± 14.2 µM in [5] (setting [21]); 12.1 µM in data set [5] (setting [22]); 14.4 µM in [5] (setting [23]); 13.3 µM in data set [5] (setting [24]).
On to `COC(=O)[C@@H]1CCCN1[C@@H](c1ccccc1)c1c(O)ccc2ccccc12` (mixture of isomers) [MMZ-140C, (S,S) and (R,R)-methyl ((2-hydroxynaphthalen-1-yl)(phenyl)methyl)-L-prolinate], for which the “% of apoptotic cells” value in data set [1] is listed as 33.1 ± 1.12%; in data set [2], “No statistically significant changes”; in data set [3], 11.73 ± 0.38%; in data set [6], 15.13 ± 1%. In addition, the IC50 turned out to be 35.5 µM in data set [4] (setting [13]); 40 µM in data set [4] (setting [14]); 37.8 ± 3.2 µM in data set [4] (setting [15]); 9.01 µM in data set [4] (setting [16]); 14.1 µM in data set [4] (setting [17]); 11.6 µM in data set [4] (setting [18]). Also, the IC50 was 23.5 µM in [5] (setting [19]); 36.8 µM in data set [5] (setting [20]); 30.2 ± 9.39 µM in data set [5] (setting [21]); 31.7 µM in data set [5] (setting [22]); 33.2 µM in data set [5] (setting [23]); 32.4 ± 1.09 µM in data set [5] (setting [24]). Besides, the viability – broadly, the share of living cells, or the viability signal relative to a control – at 24 h in [7] (WI-38, 24 h, compound at IC50 concentration obtained for HT-29 cells) was found to be 82.9 ± 2.06%. The viability at 72 h in [7] (compound at IC50 concentration estimated for BxPC-3 cells) was 82.3 ± 6.96%; in [7] (compound at IC50 concentration obtained for HT-29 cells), 84.2 ± 2.56%.
Turning to `N.N.[Cl][Pt][Cl]` [cisplatin], the 50% growth inhibitory concentration (GI50) (in general, the concentration at which growth is held to half of that of the control) in [8] was 4.9 µM.
As for `Brc1ccc(C(c2cccc3ccccc23)N2CCCC2)cc1` (centres unmarked) [compound 14j], the GI50 in data set [8] is 7.9 µM.
In the case of `N#Cc1ccc(C(NCc2ccccc2)c2cccc3ccccc23)cc1` (centres unmarked) [compound 14t], the GI50 was 6.3 µM in [9], 4.1 µM in data set [10], 5 µM in data set [11] and 8.4 µM in data set [12].
